In patent US20250263376A1, “(E)-N-CINNAMOYLAMINOALKANOLS WITH MELANOGENESIS INHIBITORY ACTIVITY” (Uniwersytet Jagiellonski, priority 2024, published 2025):

Tests used:
tyrosinase from mushroom [1] = target: T1, tyrosinase from mushroom (Agaricus bisporus, UniProt C7FF04); test: Inhibition of commercial mushroom tyrosinase, substrate L-tyrosine; assay type: biochemical; details: 500 μM; read-out: Tyrosinase inhibition with L-tyrosine [%]
Procedure: (§1) Studies on the Inhibition of the Activity of Commercial Tyrosinase from Mushroom (Sigma: T3824)
(§2) The following substrates were used for the enzymatic reaction: L-tyrosine and L-3,4-dihyroxyphenylalanine (L-DOPA). Both substrates were used in independent experiments. According to the literature, the use of L-DOPA enables the assessment of tyrosinase diphenolase activity, and L-tyrosine—the tyrosinase monophenolase activity. The determinations were performed in 96-well plates, in each well there was placed: 170 μL or 127.5 μL of 50 mM phosphate buffer (pH=6.8) with tyrosinase (1U/well or 3U/well) and 10 μL of a solution of the tested compound in DMSO (the final concentration in the well was 500 μM, 250 μM or 125 μM). The negative control used 10 u L of pure solvent (DMSO). To initiate the reaction, an appropriate substrate was added: L-tyrosine (62.5 μL of solution in phosphate buffer) or L-DOPA (20 μL of solution in phosphate buffer). After a 25-minute incubation, the absorbance was measured at 475 nm using a microplate reader. The percentage of inhibition of tyrosinase activity was calculated using the formula: [(AC−AT)/[…], where AC—is the absorbance of the negative control, AT—is the absorbance of the sample containing the tested compound.

tyrosinase from mushroom [2] = target: T1, tyrosinase from mushroom; test: Inhibition of commercial mushroom tyrosinase, substrate L-DOPA; assay type: biochemical; details: 500 μM; read-out: Tyrosinase inhibition with L-DOPA [%]
Procedure: as §1, §2

[3] = test system: B16-F10 murine melanoma cell line; test: Cytotoxicity (MTT) in B16-F10 murine melanoma cells; assay type: cell-based; details: 48 h
Procedure: Cytotoxicity Assessment in the B16-F10 Murine Melanoma Cell Line (ATTC CRL-6745)—Preliminary Safety Assessment for Subsequent Studies
In order to determine safe doses of compounds for testing the inhibition of melanogenesis in a murine melanoma cell line, cytotoxicity tests were performed. Cytotoxicity was determined by the colorimetric method using MTT ([3-(4,5-dimethyl-2-thiazolyl)-2,5-diphenyl-2H-tetrazolium bromide, Sigma M5655). For this purpose, cells were transferred to 96-well plates in an amount of 5000/well. After 24 h of culture in an incubator in F10-Ham medium with 1% FBS, the tested compounds at various concentrations were added to the wells together with fresh medium. DMSO was added to the medium in a negative control. The MTT test was performed after further culture for 48 h. Then the medium was removed and the formed formazan crystals were dissolved in DMSO. The absorbance was measured at 570 nm in a plate reader and the result was compared to the control (DMSO), which was 100%. The percentage of viability was calculated using the formula: [AT/AC*100], where AT is the absorbance of the test sample, AC—absorbance of the control sample.

[4] = Lipophilicity coefficient RM0 by reversed phase thin layer chromatography; assay type: physicochemical; details: RP-18 TLC, methanol/phosphate buffer pH=7.4
Procedure: Confirmation of the identity and purity of the obtained compounds consisted in the registration and interpretation of 1H NMR and 13C NMR spectra (the spectra were recorded using an ECZR 500 MHZ (JEOL) series FT-NMR spectrophotometer), as well as the registration and interpretation of LC-MS spectra (the spectra were recorded using Acquita UPLC system (Waters) coupled with a Waters TQD mass spectrometer). The melting point was measured using the open capillary method in the IA9300 device (Electrothermal). The lipophilicity coefficient RM0 was determined by reversed phase thin layer chromatography. In the study, aluminum plates 20×20 cm covered with modified silica gel RP-18 F254 (Merck) were used as the solid phase. The mobile phase consisted of solutions of methanol and 100 mM phosphate buffer (pH=7.4), characterized by a variable methanol content ranging from 95 to 65% (v/v). The tested compounds were dissolved in methanol to obtain solutions with a concentration of 1 mg/mL. Then, […] of the solutions prepared in this way were transferred to the starting line on aluminum plates, which were then placed in chromatographic chambers previously saturated with mobile phase vapors for at least 1 hour. All activities, including the development of chromatograms, were carried out at room temperature. After developing the chromatograms to approximately 1-2 cm from the end of the plate, the plates were dried and then the distance traveled by the tested compounds was visualized under UV light (λ=254 nm). The experiment was performed in duplicate for the specified conditions. For all samples, Rf was calculated according to the formula Rf=a/b, where a—the distance traveled by the tested compound, b—the distance traveled by the mobile phase. Then, the RM parameter was calculated for all samples according to the formula RM=log (1/Rf−1), obtaining a linear relationship between the RM values and the methanol concentration in the mobile phase. The log P coefficient was also calculated using the following computer programs: ACD/ChemSketch 2020.1.2 and ChemDraw 20.0.0.41.

T1 sequence (C7FF04 2-392): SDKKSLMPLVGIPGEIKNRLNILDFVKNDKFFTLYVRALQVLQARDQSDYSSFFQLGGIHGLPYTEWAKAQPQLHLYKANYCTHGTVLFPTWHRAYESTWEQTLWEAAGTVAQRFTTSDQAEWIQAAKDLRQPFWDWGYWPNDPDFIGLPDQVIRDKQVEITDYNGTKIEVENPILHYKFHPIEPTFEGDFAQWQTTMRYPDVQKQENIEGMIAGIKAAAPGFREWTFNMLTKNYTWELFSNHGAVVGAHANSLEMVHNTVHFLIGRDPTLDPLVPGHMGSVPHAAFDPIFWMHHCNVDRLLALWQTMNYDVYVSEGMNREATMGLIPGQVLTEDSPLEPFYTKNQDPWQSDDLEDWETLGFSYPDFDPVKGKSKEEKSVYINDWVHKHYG
T1 sequence (G1K3P4 entry or part of it, further chain): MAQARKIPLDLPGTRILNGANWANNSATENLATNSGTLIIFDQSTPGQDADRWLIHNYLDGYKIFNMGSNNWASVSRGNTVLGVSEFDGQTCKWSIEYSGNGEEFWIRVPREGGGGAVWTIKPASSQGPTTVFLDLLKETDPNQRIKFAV

Row | SMILES | inhibition at 500 µM (tyrosinase from mushroom [1]) [%] | inhibition at 500 µM (tyrosinase from mushroom [2]) [%] | Cytotoxicity study in B16F10 cells, % viability ([3]; 150 μM) [%] | Cytotoxicity study in B16F10 cells, % viability ([3]; 200 μM) [%] | Cytotoxicity study in B16F10 cells, % viability ([3]; 250 μM) [%] | RM0 [4] | Cytotoxicity study in B16F10 cells, % viability ([3]; 12.5 μM) [%] | Cytotoxicity study in B16F10 cells, % viability ([3]; 25 μM) [%] | Cytotoxicity study in B16F10 cells, % viability ([3]; 50 μM) [%]
1 | O=C(/C=C/c1ccc(Cl)cc1Cl)N1CCC(O)CC1 [H-310/20, (2E)-3-(2,4-dichlorophenyl)-1-(4-hydroxypiperidin-1-yl)prop-2-en-1-one] | 19.2 ± 3.44 | 7.23 ± 0.81 | 89.5 | 100.4 | 93.0 | 2.80 | – | – | –
2 | O=C(/C=C/c1ccccc1)NCCCCO [Compound A-43, (2E)-N-(4-hydroxybutyl)-3-phenylprop-2-enamide] | 35.5 ± 1.37 | 34.5 ± 4.18 | 108.9 | 105.7 | 103.2 | 1.60 | – | – | –
3 | O=C(/C=C/c1ccccc1)NCCO [H-429/21, (2E)-N-(2-hydroxyethyl)-3-phenylprop-2-enamide] | 21 ± 8.83 | 30.5 ± 1.2 | 86.4 | 79.8 | 80.9 | 1.27 | – | – | –
4 | Cc1ccc(/C=C/C(=O)NCCCO)cc1 [H-410/21, (2E)-N-(3-hydroxypropyl)-3-(4-methylphenyl)prop-2-enamide] | 0.51 ± 5.4 | 17 ± 5.66 | 88.8 | 90.7 | 79.8 | 2.04 | – | – | –
5 | O=C(/C=C/c1ccccc1)NCCCO [KM-634, (2E)-N-(3-hydroxypropyl)-3-phenylprop-2-enamide] | 27.4 ± 2.24 | 34.2 ± 2.32 | 76.1 | 70.5 | 63.3 | 1.60 | – | – | –
6 | Cc1ccc(/C=C/C(=O)NCCCCO)cc1 [H-411/21, (2E)-N-(4-hydroxybutyl)-3-(4-methylphenyl)prop-2-enamide] | 20.4 ± 2.09 | 16.9 ± 7.94 | 50.6 | 34.9 | 41.2 | 2.27 | – | – | –
7 | O=C(/C=C/c1ccc(Cl)cc1Cl)NCCCCCO [H-297/20, (2E)-3-(2,4-dichlorophenyl)-N-(5-hydroxypentyl)prop-2-enamide] | 19.1 ± 2.53 | 20.5 ± 2.84 | 102.3 | 73.6 | 88.5 | 3.08 | – | – | –
8 | Cc1ccc(/C=C/C(=O)NC(C)CO)cc1 (stereo not drawn) [Compound A-69, (2E)-N-(1-hydroxypropan-2-yl)-3-(4-methylphenyl)prop-2-enamide] | 4.4 ± 7.15 | 23 ± 6.64 | 96.6 | 101.3 | 97.5 | 2.17 | – | – | –
9 | CCC(CO)NC(=O)/C=C/c1ccc(C)cc1 (stereo not drawn) [H-409/21, (2E)-N-(1-hydroxybutan-2-yl)-3-(4-methylphenyl)prop-2-enamide] | 15.3 ± 8.27 | 21.8 ± 2.31 | 83.2 | 95.3 | 103.4 | 2.49 | – | – | –
10 | O=C(/C=C/c1ccc(Cl)cc1)NCCCCO [H-331/21, (2E)-3-(4-chlorophenyl)-N-(4-hydroxybutyl)prop-2-enamide] | 82.5 ± 0.87 | 64.31 ± 0.21 | 32.7 | 51.9 | 52.7 | 2.14 | 49.0 | 47.8 | 54.2
